In article PMC12520178, “Turn-engineering tunes the conformational rigidity of β-hairpin AMPs in achieving membrane selectivity and killing drug-resistant ESKAPE pathogens” (Chemical Science, 2025):
Values after ≈ are worked out from the molar mass of the structure shown. Read-outs that look alike come from different tables or passages of the source. Where a SMILES comes first, the peptide text is derived from it. Bridges are numbered along the chain shown (N, C = ends). [ ]: non-standard residue; d: D form. NMeR = CN[C@@H](CCCNC(=N)N)C(=O)O

Key:
[1] = system: Escherichia coli; format: cell-based
[2] = system: Pseudomonas aeruginosa; format: cell-based
[3] = system: Acinetobacter baumannii; format: cell-based
[4] = system: Klebsiella pneumoniae; format: cell-based
[5] = system: Staphylococcus aureus; assay: microbe, parasite or virus in culture; format: cell-based
[6] = system: human red blood cells; conditions: red cells of human

CC(C)[C@H](NC(=O)[C@H](CCCNC(=N)N)NC(=O)[C@H](C)NC(=O)[C@H](Cc1ccc(O)cc1)NC(=O)[C@@H](NC(=O)[C@@H](NC(=O)[C@H](Cc1c[nH]c2ccccc12)NC(=O)[C@@H](N)CCCNC(=N)N)[C@@H](C)O)C(C)C)C(=O)N[C@H](C)C(=O)N(C)[C@@H](CCCNC(=N)N)C(=O)N[C@H](C(=O)N[C@@H](CCCNC(=N)N)C(=O)N[C@@H](Cc1ccc(O)cc1)C(=O)N[C@@H](CCCNC(=N)N)C(=O)N[C@@H](CCCNC(=N)N)C(=O)N[C@H](C(=O)N[C@@H](Cc1c[nH]c2ccccc12)C(=O)O)[C@@H](C)O)C(C)C [1d] (H-RWTVYARV[dA][NMeR]VRYRRTW-OH)
MIC90 [1]: 0.4 µM (≈ 0.924 µg/mL) | MIC (μM) ec [1]: 0.4 µM (≈ 0.924 µg/mL) | MIC (μM) pa [2]: 2.4 µM (≈ 5.54 µg/mL) | MIC (μM) ab [3]: 1.2 µM (≈ 2.77 µg/mL) | MIC (μM) kp [4]: 0.4 µM (≈ 0.924 µg/mL) | MIC (μM) sa [5]: 0.6 µM (≈ 1.39 µg/mL) | MHC10 (μM), minimum hemolytic concentration [6]: 100 µM

Polymyxin B [reference compound]
MIC (μM) pa ([2]; Pseudomonas aeruginosa, non-resistant, microbroth dilution, n = 5): 0.8 µM | MIC (μM) ab ([3]; Acinetobacter baumannii, non-resistant, microbroth dilution, n = 5): 0.8 µM | MIC (μM) kp ([4]; Klebsiella pneumoniae, non-resistant, microbroth dilution, n = 5): 3.0 µM

CC(C)C[C@H](NC(=O)[C@H](CCCNC(=N)N)NC(=O)CNC(=O)CNC(=O)[C@@H](N)CCCNC(=N)N)C(=O)N[C@H](C(=O)N[C@@H](Cc1ccc(O)cc1)C(=O)N[C@H](C(=O)N[C@@H](CCCNC(=N)N)C(=O)N[C@H](C)C(=O)N(C)[C@@H](CCCNC(=N)N)C(=O)N[C@@H](Cc1ccccc1)C(=O)N[C@H](C(=O)N[C@H](C(=O)N[C@H](C(=O)N[C@H](C(=O)NCC(=O)N[C@@H](CCCNC(=N)N)C(N)=O)C(C)C)[C@@H](C)O)C(C)C)[C@@H](C)O)[C@@H](C)O)[C@@H](C)O [2d] (H-RGGRLTYTR[dA][NMeR]FTVTVGR-NH2)
MIC90 [1]: 0.4 µM (≈ 0.832 µg/mL) | MIC (μM) pa [2]: 1.6 µM (≈ 3.33 µg/mL) | MIC (μM) ab [3]: 0.4 µM (≈ 0.832 µg/mL) | MIC (μM) kp [4]: 0.8 µM (≈ 1.66 µg/mL) | MIC (μM) sa [5]: 3.1 µM (≈ 6.45 µg/mL) | MHC10 (μM), minimum hemolytic concentration [6]: 100 µM

CN[C@H](CC(C)C)C(=O)N[C@H]1C(=O)N[C@@H](CC(N)=O)C(=O)N[C@H]2C(=O)N[C@H]3C(=O)N[C@H](C(=O)N[C@H](C(=O)O)c4cc(O)cc(O)c4-c4cc3ccc4O)[C@H](O)c3ccc(c(Cl)c3)Oc3cc2cc(c3O[C@@H]2O[C@H](CO)[C@@H](O)[C@H](O)[C@H]2O[C@H]2C[C@](C)(N)[C@H](O)[C@H](C)O2)Oc2ccc(cc2Cl)[C@H]1O [Vancomycin, reference compound]
MIC ([5]; Staphylococcus aureus, read-out: MIC (μM) sa): 0.6 µM (≈ 0.87 µg/mL)

CC[C@H](C)[C@H](NC(=O)[C@H](CCCNC(=N)N)N(C)C(=O)[C@H](NC(=O)[C@H](Cc1ccc(O)cc1)NC(=O)[C@@H](NC(=O)[C@@H](NC(=O)[C@H](CCCNC(=N)N)NC(=O)[C@H](Cc1ccccc1)NC(=O)[C@@H](NC(=O)[C@H](Cc1c[nH]c2ccccc12)NC(=O)[C@@H](N)CCCCN)[C@@H](C)O)C(C)C)[C@@H](C)O)C(C)C)C(=O)N[C@H](C(=O)N[C@@H](Cc1ccc(O)cc1)C(=O)N[C@@H](CCCNC(=N)N)C(=O)N[C@@H](CCCNC(=N)N)C(=O)N[C@H](C(=O)N[C@@H](CCCNC(=N)N)C(N)=O)[C@@H](C)O)[C@@H](C)O [4e] (H-KWTFRVTY[dV][NMeR]ITYRRTR-NH2)
MIC90 [1]: 0.2 µM (≈ 0.463 µg/mL) | MHC10 (μM), minimum hemolytic concentration [6]: 50 µM

CC(C)[C@@H]1NC(=O)[C@@H](NC(=O)[C@H](Cc2c[nH]c3ccccc23)NC(=O)[C@@H](N)CCCNC(=N)N)CSSC[C@@H](C(=O)N[C@@H](Cc2c[nH]c3ccccc23)C(=O)O)NC(=O)[C@H](CCCNC(=N)N)NC(=O)[C@H](CCCNC(=N)N)NC(=O)[C@H](Cc2ccc(O)cc2)NC(=O)[C@H](CCCNC(=N)N)NC(=O)[C@H](C(C)C)NC(=O)[C@H](CCCNC(=N)N)N(C)C(=O)[C@@H](C(C)C)NC(=O)[C@H](C(C)C)NC(=O)[C@H](CCCNC(=N)N)NC(=O)[C@H](C)NC(=O)[C@H](Cc2ccc(O)cc2)NC1=O [1b] (H-RWCVYARV[dV][NMeR]VRYRRCW-OH; disulfide 3-16)
MIC90 [1]: 0.2 µM (≈ 0.468 µg/mL) | MIC (μM) ec [1]: 0.2 µM (≈ 0.468 µg/mL) | MIC (μM) pa [2]: 0.8 µM (≈ 1.87 µg/mL) | MIC (μM) ab [3]: 0.8 µM (≈ 1.87 µg/mL) | MIC (μM) kp [4]: 0.4 µM (≈ 0.936 µg/mL) | MIC (μM) sa [5]: 0.4 µM (≈ 0.936 µg/mL)

CC(C)[C@@H]1NC(=O)[C@@H](NC(=O)[C@H](Cc2c[nH]c3ccccc23)NC(=O)[C@@H](N)CCCNC(=N)N)CSSC[C@@H](C(=O)N[C@@H](Cc2c[nH]c3ccccc23)C(=O)O)NC(=O)[C@H](CCCNC(=N)N)NC(=O)[C@H](CCCNC(=N)N)NC(=O)[C@H](Cc2ccc(O)cc2)NC(=O)[C@H](CCCNC(=N)N)NC(=O)[C@H](C(C)C)NC(=O)[C@H](CCCNC(=N)N)N(C)C(=O)[C@@H](C)NC(=O)[C@H](C(C)C)NC(=O)[C@H](CCCNC(=N)N)NC(=O)[C@H](C)NC(=O)[C@H](Cc2ccc(O)cc2)NC1=O [1a] (H-RWCVYARV[dA][NMeR]VRYRRCW-OH; disulfide 3-16)
MIC90 [1]: 0.4 µM (≈ 0.925 µg/mL) | MIC (μM) ec [1]: 0.4 µM (≈ 0.925 µg/mL) | MIC (μM) pa [2]: 0.8 µM (≈ 1.85 µg/mL) | MIC (μM) ab [3]: 0.4 µM (≈ 0.925 µg/mL) | MIC (μM) kp [4]: 0.8 µM (≈ 1.85 µg/mL) | MIC (μM) sa [5]: 0.8 µM (≈ 1.85 µg/mL)

CC(C)[C@H](NC(=O)[C@H](CCCNC(=N)N)NC(=O)[C@H](Cc1ccccc1)NC(=O)[C@@H](NC(=O)[C@H](Cc1c[nH]c2ccccc12)NC(=O)[C@H](CCCNC(=N)N)NC(=O)[C@@H](N)CCCNC(=N)N)[C@@H](C)O)C(=O)N[C@H](C(=O)N[C@@H](Cc1ccc(O)cc1)C(=O)N[C@@H](C(=O)N(C)[C@@H](CCCNC(=N)N)C(=O)N[C@@H](Cc1ccccc1)C(=O)N[C@H](C(=O)N[C@@H](Cc1ccc(O)cc1)C(=O)N[C@@H](CCCNC(=N)N)C(=O)N[C@@H](CCCCN)C(=O)N[C@H](C(=O)N[C@@H](CCCNC(=N)N)C(N)=O)[C@@H](C)O)[C@@H](C)O)C(C)C)[C@@H](C)O [3e] (H-RRWTFRVTY[dV][NMeR]FTYRKTR-NH2)
MIC90 [1]: 1.1 µM (≈ 2.76 µg/mL) | MHC10 (μM), minimum hemolytic concentration [6]: 50 µM

CC(C)C[C@H](NC(=O)[C@H](CCCNC(=N)N)NC(=O)CNC(=O)CNC(=O)[C@@H](N)CCCNC(=N)N)C(=O)N[C@H]1CSSC[C@@H](C(=O)N[C@H](C(=O)NCC(=O)N[C@@H](CCCNC(=N)N)C(N)=O)C(C)C)NC(=O)[C@H](C(C)C)NC(=O)[C@@H]2CSSC[C@H](NC(=O)[C@H](Cc3ccc(O)cc3)NC1=O)C(=O)N[C@@H](CCCNC(=N)N)C(=O)N[C@H](C)C(=O)N(C)[C@@H](CCCNC(=N)N)C(=O)N[C@@H](Cc1ccccc1)C(=O)N2 [2a] (H-RGGRLCYCR[dA][NMeR]FCVCVGR-NH2; disulfide 6-15, 8-13)
MIC90 [1]: 0.5 µM (≈ 1.04 µg/mL) | MHC10 (μM), minimum hemolytic concentration [6]: 3.12 µM

CC(C)[C@H](NC(=O)[C@H](CCCNC(=N)N)NC(=O)[C@H](C)NC(=O)[C@H](Cc1ccc(O)cc1)NC(=O)[C@@H](NC(=O)[C@@H](NC(=O)[C@H](Cc1c[nH]c2ccccc12)NC(=O)[C@@H](N)CCCNC(=N)N)[C@@H](C)O)C(C)C)C(=O)N[C@@H](C(=O)N(C)[C@@H](CCCNC(=N)N)C(=O)N[C@H](C(=O)N[C@@H](CCCNC(=N)N)C(=O)N[C@@H](Cc1ccc(O)cc1)C(=O)N[C@@H](CCCNC(=N)N)C(=O)N[C@@H](CCCNC(=N)N)C(=O)N[C@H](C(=O)N[C@@H](Cc1c[nH]c2ccccc12)C(=O)O)[C@@H](C)O)C(C)C)C(C)C [1e] (H-RWTVYARV[dV][NMeR]VRYRRTW-OH)
MIC90 [1]: 0.6 µM (≈ 1.4 µg/mL) | MIC (μM) ec [1]: 0.6 µM (≈ 1.4 µg/mL) | MIC (μM) pa [2]: 0.8 µM (≈ 1.87 µg/mL) | MIC (μM) ab [3]: 0.4 µM (≈ 0.935 µg/mL) | MIC (μM) kp [4]: 1.6 µM (≈ 3.74 µg/mL) | MIC (μM) sa [5]: 2.6 µM (≈ 6.08 µg/mL)

CC(C)C[C@H](NC(=O)[C@H](CCCNC(=N)N)NC(=O)CNC(=O)CNC(=O)[C@@H](N)CCCNC(=N)N)C(=O)N[C@H](C(=O)N[C@@H](Cc1ccc(O)cc1)C(=O)N[C@H](C(=O)N[C@@H](CCCNC(=N)N)C(=O)N[C@@H](C(=O)N(C)[C@@H](CCCNC(=N)N)C(=O)N[C@@H](Cc1ccccc1)C(=O)N[C@H](C(=O)N[C@H](C(=O)N[C@H](C(=O)N[C@H](C(=O)NCC(=O)N[C@@H](CCCNC(=N)N)C(N)=O)C(C)C)[C@@H](C)O)C(C)C)[C@@H](C)O)C(C)C)[C@@H](C)O)[C@@H](C)O [2e] (H-RGGRLTYTR[dV][NMeR]FTVTVGR-NH2)
MIC90 [1]: 0.3 µM (≈ 0.633 µg/mL) | MHC10 (μM), minimum hemolytic concentration [6]: 50 µM

CC(C)C[C@H](NC(=O)[C@H](CCCNC(=N)N)NC(=O)CNC(=O)CNC(=O)[C@@H](N)CCCNC(=N)N)C(=O)N[C@H]1CSSC[C@@H](C(=O)N[C@H](C(=O)NCC(=O)N[C@@H](CCCNC(=N)N)C(N)=O)C(C)C)NC(=O)[C@H](C(C)C)NC(=O)[C@@H]2CSSC[C@H](NC(=O)[C@H](Cc3ccc(O)cc3)NC1=O)C(=O)N[C@@H](CCCNC(=N)N)C(=O)N[C@H](C(C)C)C(=O)N(C)[C@@H](CCCNC(=N)N)C(=O)N[C@@H](Cc1ccccc1)C(=O)N2 [2b] (H-RGGRLCYCR[dV][NMeR]FCVCVGR-NH2; disulfide 6-15, 8-13)
MIC90 [1]: 0.4 µM (≈ 0.845 µg/mL) | MHC10 (μM), minimum hemolytic concentration [6]: 3.12 µM

CC(C)[C@H](NC(=O)CNC(=O)[C@H](CCCNC(=N)N)NC(=O)[C@@H](NC(=O)[C@H](CCCNC(=N)N)NC(=O)[C@H](C)NC(=O)[C@H](Cc1ccc(O)cc1)NC(=O)[C@@H](NC(=O)[C@@H](NC(=O)[C@H](Cc1c[nH]c2ccccc12)NC(=O)[C@@H](N)CCCNC(=N)N)[C@@H](C)O)C(C)C)C(C)C)C(=O)N[C@@H](CCCNC(=N)N)C(=O)N[C@@H](Cc1ccc(O)cc1)C(=O)N[C@@H](CCCNC(=N)N)C(=O)N[C@@H](CCCNC(=N)N)C(=O)N[C@H](C(=O)N[C@@H](Cc1c[nH]c2ccccc12)C(=O)O)[C@@H](C)O [1c] (H-RWTVYARVRGVRYRRTW-OH)
MIC90 [1]: 2.4 µM (≈ 5.48 µg/mL) | MIC (μM) ec [1]: 2.4 µM (≈ 5.48 µg/mL) | MIC (μM) pa [2]: 12.5 µM (≈ 28.5 µg/mL) | MIC (μM) ab [3]: 3.12 µM (≈ 7.12 µg/mL) | MIC (μM) kp [4]: 1.6 µM (≈ 3.65 µg/mL) | MIC (μM) sa [5]: 2.4 µM (≈ 5.48 µg/mL)
